Test results: publication PMC10541198, “Specific quinone reductase 2 inhibitors reduce metabolic burden and reverse Alzheimer’s disease phenotype in mice” (The Journal of Clinical Investigation, 2023)
Several values for one entry are separate records, joined by “and”; a condition that tells them apart may be missing. Equal values may be shown once.

Key:
[1] = tested on: GFAP; assay: IHC of GFAP (astrocyte activation) in 5xFAD brain sections; type: in vivo, mouse; details: for Figure 9E, IHC signal: individual animals
Source text: (§1) Following the behavioral experiments, we assessed brain pathologies associated with AD present in the 5xFAD mice ([37]). Therefore, 5 days following the last behavioral experiment, and 1 month after the start of YB-537 consumption, mice were sacrificed, and coronal brain sections were used for IHC. Since the CA1 region of the hippocampus is affected during AD pathogenesis ([37]), and this brain region is involved in the behavioral paradigms used here, we acquired images of CA1. This was done with an Olympus IX83 confocal microscope using the same settings, antibodies, and exposures in all mice. Images were analyzed using Imaris (Bitplane; see methods). For each mouse, 3 coronal sections were used per antibody. In each section, the same region of CA1 was acquired, using the same image frame size and resolution, at all possible depths of the section — using a Z-stack of the whole section — to allow measurement of the fluorescent antibody marker volume, which was normalized to the brain volume from which it was taken. First, we measured oxidative stress, as indicated by 4-HNE ([38]) (Abcam, ab48506).
(§2) Perfused and fixed brain slices were blocked with 10% normal donkey serum (DNS) and 0.2% triton (Sigma-Aldrich) in PBS. Antibodies, including 4-HNE (AbCam, ab48506), Iba1 (AbCam, ab5076), AT-8 (Thermo, MN1020), Amyloid β (AbCam, ab201060), diluted in PBS with 10% DNS, were incubated at 4°C overnight. Secondary antibodies including donkey-anti-goat Alexa Fluor 568 (AbCam, ab175704), donkey-anti-mouse Cy 5 (Jackson Immuno Research, 715-175-151), and donkey-anti-rabbit DyLight 488 (AbCam, ab98488) all diluted 1:500 in PBS with 1% BSA, were applied to the slices at RT for 2 hours the next day. Slices were mounted onto glass slides using DAPI containing Vectashield (H-1200). Images were taken using a confocal microscope (Olympus IX83). Three slices were used per mouse per antibody. Tiling images of the dorsal CA1 and cortex (Bregma: –1.58mm to –2.30mm) were taken using ×20 objective, acquiring a Z-stack of the whole section. Analysis of the images was done blind by an experimenter unaware of the experimental conditions or details, using Imaris (Bitplane) software. A surface reconstruction module was used to extract the data as volumes of the used markers (4-HNE, phospho-tau, amyloid β, GFAP, and Iba1). Marker volume and intensity were normalized to the corresponding brain volume. The normalized value was averaged for each triplicate and presented here. […]
(§3) Brains were then briefly removed and placed in chilled, 4% PFA for 48 h, f oll owe d by immersion in 30% sucrose in 0.1 M PBS for a furt her 48 h. Bra i ns wer e t h e n stored at -80°C, until t he y were sliced into 40µm coronal sections usinga Lei ca CM 1950cryostat. Sli ces were then washed x3 in PBS and bl oc ke d for 1 h at RT using 10% normal donkey serum (DNS) and 0.2% triton (Sigma-Aldrich) in PBS. Antibodies, including 4- HNE (1:500, AbCam, ab48506), Iba1 (1:2,000, AbCam, ab5076), GFAP (Abcam, ab53554), phospho- tau (1:1,000, Thermo, MN1020) and amyloid β (1:1,000, AbCam, ab201060) diluted in PBS with 10% DNS were incubated at 4°C overnight. The next day, the slices were washed x3 times in PBS, and secondary antibodies including donkey anti goat A l e x a Fluor 568 (AbCam, ab175704), donkey anti-mouse Cy 5 (Jackson Immuno Research, 715- 175- 151) and donkey anti-rabbit DyLight 488 (AbCam, ab98488) all diluted 1:500 in PBS with 1% BSA, were applied to the slices at RT for 2 h. Following the incubation, the slices were washed x3 times in PBS, mounted onto gl ass slides, were uniformly covered in DAPI containing Vectashield (H-1200) and coverslips were a dde d. […]

[2] = tested on: p-tau; assay: IHC of p-tau (AT8) in 5xFAD brain sections; type: in vivo, mouse; details: for p-tau normalized volume (individual mice): CA1, 5xFAD 1 month; for Figure 9C, IHC signal / Sup. Fig. 6-1C, IHC signal: individual animals; for p-Tau vs vehicle: cortex, 5xFAD 1 month
Source text: as §1, §2, §3

## Cc1ccc(-c2cn3cccc(C)c3n2)cc1S(=O)(=O)N1CCNCC1 [YB-537]
[1]; CA1, 5xFAD 1 month, Females
  GFAP normalized volume (individual mice): 0.0219 and 0.0268 and 0.0382 and 0.0442 and 0.0260 and 0.0233 and 0.0143
  GFAP vs vehicle: unchanged
[1]; CA1, 5xFAD 1 month, Males
  GFAP normalized volume (individual mice): 0.0303 and 0.0430 and 0.0365 and 0.0251 and 0.0258 and 0.0274 and 0.0223 and 0.0292 and 0.0263
  GFAP vs vehicle: unchanged
[1]; CA1, 5xFAD 1 month, Males + Females
  GFAP normalized volume (individual mice): 0.0303 and 0.0430 and 0.0365 and 0.0251 and 0.0258 and 0.0442 and 0.0260 and 0.0233 and 0.0143 and 0.0219 and 0.0268 and 0.0382 and 0.0274 and 0.0223 and 0.0292 and 0.0263
[1]; CA1, 5xFAD 1 month, total population
  GFAP vs vehicle: unchanged
[1]; Cortex
  Figure 9E, IHC signal: 0.0026 and 0.0035 and 0.0044 and 0.0272 and 0.0046 and 0.0194 and 0.0258 and 0.0029 and 0.0033
[1]; Hippocampus
  Figure 9E, IHC signal: 0.0259 and 0.0223 and 0.0094 and 0.0129 and 0.0279 and 0.0329 and 0.0343 and 0.0281 and 0.0220
[1]; cortex, 5xFAD 1 month, females
  GFAP vs vehicle: not significantly reduced
[1]; cortex, 5xFAD 1 month, males
  GFAP vs vehicle: significantly reduced
[1]; cortex, 5xFAD 1 month, total population
  GFAP vs vehicle: significantly reduced
[2]; Females
  p-tau normalized volume (individual mice): 0.0465 and 0.0384 and 0.0492 and 0.0132 and 0.0255 and 0.0111 and 0.0090
  Sup. Fig. 6-1C, IHC signal: 0.0087 and 0.0158 and 0.0323 and 0.0264 and 0.0119 and 0.0169 and 0.0098
[2]; Males
  p-tau normalized volume (individual mice): 0.0610 and 0.0859 and 0.0662 and 0.0488 and 0.0445 and 0.0550 and 0.1044 and 0.0487 and 0.0628
  Sup. Fig. 6-1C, IHC signal: 0.0177 and 0.0343 and 0.0259 and 0.0422 and 0.0294 and 0.0273 and 0.0409 and 0.0167 and 0.0342
[2]; Males + Females
  p-tau normalized volume (individual mice): 0.0465 and 0.0384 and 0.0492 and 0.0550 and 0.1044 and 0.0487 and 0.0628 and 0.0610 and 0.0859 and 0.0662 and 0.0488 and 0.0445 and 0.0132 and 0.0255 and 0.0111 and 0.0090
[2]; Cortex
  Figure 9C, IHC signal: 0.0130 and 0.0160 and 0.0210 and 0.0219 and 0.0108 and 0.0168 and 0.0118 and 0.0284 and 0.0147
[2]; Hippocampus
  Figure 9C, IHC signal: 0.0315 and 0.0219 and 0.0395 and 0.0356 and 0.0234 and 0.0118 and 0.0425 and 0.0378 and 0.0364
[2]; females
  p-Tau vs vehicle: unchanged
[2]; males
  p-Tau vs vehicle: unchanged
[2]; total population
  p-Tau vs vehicle: unchanged
